{"source": "patent EP1606307B1", "about": "“ESTRIENO[3,2-B]/[3,4-C]PYRROLE DERIVATIVES USEFUL AS MODULATORS OF THE ESTROGEN RECEPTORS” (Ortho-McNeil Pharmaceutical, Inc., priority 2002, dated 2004)", "key": {"[1]": {"molecular_target": "T1, human estrogen receptor α (Homo sapiens, UniProt P03372)", "T1 construct": "purchased Panvera", "T1 sequence (P03372 1-595)": "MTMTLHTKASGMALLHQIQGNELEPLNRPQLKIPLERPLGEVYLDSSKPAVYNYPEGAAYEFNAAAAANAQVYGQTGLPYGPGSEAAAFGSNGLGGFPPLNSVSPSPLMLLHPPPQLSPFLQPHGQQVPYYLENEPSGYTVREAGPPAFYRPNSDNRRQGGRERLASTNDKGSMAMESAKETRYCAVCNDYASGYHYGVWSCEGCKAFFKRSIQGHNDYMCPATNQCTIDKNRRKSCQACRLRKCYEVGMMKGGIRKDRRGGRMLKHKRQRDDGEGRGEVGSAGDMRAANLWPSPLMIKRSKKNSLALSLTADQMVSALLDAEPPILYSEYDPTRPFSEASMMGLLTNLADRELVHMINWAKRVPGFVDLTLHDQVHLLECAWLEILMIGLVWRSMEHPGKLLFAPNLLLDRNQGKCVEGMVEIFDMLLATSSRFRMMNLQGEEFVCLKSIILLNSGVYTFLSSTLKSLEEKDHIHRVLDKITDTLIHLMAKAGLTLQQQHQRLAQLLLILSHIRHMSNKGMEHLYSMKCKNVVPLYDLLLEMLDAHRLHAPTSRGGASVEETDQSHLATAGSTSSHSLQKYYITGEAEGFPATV", "test": "Estrogen Receptor α Flash Plate Assay (binding of radiolabeled estrogen)", "conditions": "for IC50: read-out: ERα Binding IC50; for inhibition at 1 µM: read-out: ERα at 1µM % Inhibition", "procedure": "This assay monitors binding of radiolabeled estrogen to the estrogen receptor. It was performed on a BioMek 2000 (Beckman). Plates were read in a scintillation counter (Packard TopCount), with decreased counts an indication of binding of a compound to the receptor. The assay was run according to the procedure described by Allan, et al., Anal. Biochem. (1999), 275(2), 243-247.\nOn day one, 100 µL of Estrogen Screening Buffer (ESB, Panvera) containing 5mM dithiothreitol (DTT, Panvera), 0.5 µg mouse anti-estrogen receptor monoclonal antibody (SRA-1010, Stressgen) and 50 ng purified human estrogen receptor α (nER-α, Panvera) were added to each well of a 96 well FlashPlate Plus plate crosslinked with goat anti-mouse antibodies (NEN Life Sciences). The plate was sealed and incubated at 4°C overnight.\nOn day two, each well was washed three times with 200 µL PBS, pH 7.2, at room temperature. To each well was then added 98 µL radiolabeled estrogen (0.5 nM, which equals 6 nCi for a 120 Ci/mmol batch, Amersham), diluted in ESB and 5mM dithiothreitol (DTT). To individual wells were then added 2.5 µL test compound diluted in 30% (v/v) dimethyl sulfoxide/50 mM HEPES, pH 7.5. The wells were mixed three times by aspiration, the plate sealed and incubated at room temperature for one hour. The wells were then counted for 1 min in a TopCount scintillation counter (Packard)."}, "MCF-7 cells": {"system": "MCF-7 cells", "test": "MCF-7 Cell Proliferation Assay (14C-thymidine incorporation)", "assay_type": "cell-based", "conditions": "Homo sapiens, MCF7, increase in 14C-thymidine vs vehicle, read-out: MCF7 (Breast) EC50", "procedure": "This assay was run according to the procedure described by Welshons, et al., (Breast Cancer Res. Treat., 1987, 10(2), 169-75), with minor modification.\nBriefly, MCF-7 cells (from Dr. C. Jordan, Northwestern University) were maintained in RPMI 1640 phenol red free medium (Gibco) in 10% FBS (Hyclone), supplemented with bovine insulin and non-essential amino acid (Sigma). The cells were initially treated with 4-hydoxyltamoxifen (10^-8 M) and let stand at 37°C for 24 hours. Following this incubation with tamoxifen, the cells were treated with compounds at various concentrations.\nCompounds to be tested in the agonist mode were added to the culture media at varying concentrations. Compounds to be treated in the antagonist mode were prepared similarly, and 10 nM 17β-estradiol was also added to the culture media. The cells were incubated for 24 hours at 37°C. Following this incubation, 0.1 µCi of ^14C-thymidine (56mCi/mmol, Amersham) was added to the culture media and the cells were incubated for an additional 24 hours at 37°C. The cells were then washed twice with Hank's buffered salt solution (HBSS) (Gibco) and counted with a scintillation counter. The increase in the ^14C-thymidine in the compound treated cells relative to the vehicle control cells were reported as percent increase in cell proliferation."}, "[2]": {"system": "Human Endometrial lshikawa Cells", "test": "Alkaline Phosphatase Assay in Human Endometrial Ishikawa Cells", "assay_type": "cell-based", "conditions": "increase in alkaline phosphatase activity vs vehicle", "procedure": "This assay was run according to the procedure described by Albert et a., Cancer Res, […], 50(11), 330-6-10, with minor modification.\nIshikawa cells (from ATCC) were maintained in DMEM/F12 (1:1) phenol red free medium (Gibco) supplemented with 10% calf serum (Hyclone). 24 hours prior to testing, the medium was changed to DMEM/F12 (1:1) phenol red free containing 2% calf serum.\nCompounds to be tested in the agonist mode were added to the culture media at varying concentrations. Compounds to be treated in the antagonist mode were prepared similarly, and 10 nM 17β-estradiol was also added to the culture media. The cells were then incubated at 37°C for 3 days. On the fourth day, the media was remove, 1 volume of 1X Dilution Buffer (Clontech) was added to the well followed by addition of 1 volume of Assay Buffer (Clontech). The cells were then incubated at room temperature for 5 minutes. 1 volume of freshly prepared Chemiluminescence Buffer (1 volume of chemiluminescent substrate (CSPD) in 19 volume Chemiluminescent Enhancer with final concentration of CSPD at 1.25 mM; Sigma Chemical Co.) was added. The cells were incubated at room temperature for 10 minutes and then quantified on a luminometer. The increase of chemiluminescence over vehicle control was used to calculate the increase in alkaline phosphatase activity."}, "[3]": {"molecular_target": "T2, human estrogen receptor β (Homo sapiens, UniProt Q92731)", "T2 construct": "purchased Panvera", "T2 sequence (Q92731 whole entry)": "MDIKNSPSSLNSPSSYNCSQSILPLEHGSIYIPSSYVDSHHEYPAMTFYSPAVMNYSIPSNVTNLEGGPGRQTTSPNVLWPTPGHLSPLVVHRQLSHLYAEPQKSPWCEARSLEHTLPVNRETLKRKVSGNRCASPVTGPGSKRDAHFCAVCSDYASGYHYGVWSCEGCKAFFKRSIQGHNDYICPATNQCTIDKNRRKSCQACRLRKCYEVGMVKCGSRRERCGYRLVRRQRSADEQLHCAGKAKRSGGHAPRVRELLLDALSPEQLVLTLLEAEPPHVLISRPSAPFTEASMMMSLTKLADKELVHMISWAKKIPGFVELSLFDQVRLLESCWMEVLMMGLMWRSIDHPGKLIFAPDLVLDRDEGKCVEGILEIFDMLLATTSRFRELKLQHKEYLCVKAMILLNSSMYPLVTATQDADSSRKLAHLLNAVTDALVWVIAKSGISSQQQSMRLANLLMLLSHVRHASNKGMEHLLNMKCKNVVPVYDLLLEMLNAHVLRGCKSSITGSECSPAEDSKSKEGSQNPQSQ", "test": "Estrogen Receptor β Fluorescence Polarization Assay (Fluormone ES2 displacement)", "assay_type": "binding", "conditions": "read-out: ERβ at 1 µM % Inhibition", "text": "This assay monitors binding of a fluorescent analog of estrogen (Fluormone ES2, Panvera) to the estrogen receptor. Plates were read in a fluorometer that can be set to polarization mode. A decrease in fluorescence relative to vehicle control is an indication of binding of a compound to the receptor.\nIt is crucial to avoid introduction of air bubbles into the reaction in each well of the 96 well plate throughout this procedure. (Bubbles on the surface of the reaction disrupt light flow, affecting the polarization reading.) However, it is also crucial to effectively mix the reaction components upon addition to the well.\nOn ice, a 2X standard mixture of Assay Buffer (Panvera), 10 nM DTT and 40 nM ES2 was prepared. On ice, a 2X reaction mixture of Assay Buffer (Panvera), and 20 nM human estrogen receptor β (hER-β, Panvera) and 40 nM ES2 was also prepared.\nDilutions of test compound were prepared in 30% (v/v) dimethyl sulfoxide/50 mM HEPES, pH 7.5. At this point, the dilutions were 40X the final required concentration.\nThe standard mixture at 50 µL was then added to each well. The reaction mixture at 48 µL was added to all wells. The compound dilution at 2.5 µL was added to the appropriate wells. The reaction mixtures were mixed using a manual pipette, a roll of aluminum foil adhesive cover was placed on the plate and the plate incubated at room temperature for 1 hour.\nEach well on the plate was then read in an LjL Analyst with an excitation wavelength of […] and an emission wavelength of 538."}}}
{"smiles": "C[C@]12CCC3c4cc5cc[nH]c5cc4CCC3C1CC[C@@H]2O", "note": "(stereo partly shown) [Compound 8]", "values": [{"measurement": "IC50", "setting": "[1]", "value": 40, "unit": "nM"}, {"measurement": "EC50", "setting": "MCF-7 cells", "value": 11, "unit": "nM"}, {"measurement": "EC50", "setting": "[2]", "value": 0.44, "unit": "nM"}]}
{"smiles": "C[C@]12CCC3c4ccc5c(ccn5S(C)(=O)=O)c4CCC3C1CCC2=O", "note": "(stereo partly shown) [Compound 2]", "values": [{"measurement": "inhibition at 1 µM", "setting": "[1]", "value": 45, "unit": "%"}, {"measurement": "inhibition at 1 µM", "setting": "[3]", "value": 27, "unit": "%"}]}
{"smiles": "C[C@]12CCC3c4cc5cc[nH]c5cc4CCC3C1CCC2=O", "note": "(stereo partly shown) [Compound 3]", "values": [{"measurement": "IC50", "setting": "[1]", "value": 2200, "unit": "nM"}, {"measurement": "EC50", "setting": "MCF-7 cells", "value": 240, "unit": "nM"}, {"measurement": "EC50", "setting": "[2]", "value": 1.9, "unit": "nM"}]}
{"smiles": "C[C@]12CCC3c4cc5cc[nH]c5cc4CCC3C1CC[C@@H]2OC(=O)CCC(=O)O", "note": "(stereo partly shown) [Compound 13]", "values": [{"measurement": "IC50", "setting": "[1]", "value": 920, "unit": "nM"}, {"measurement": "EC50", "setting": "MCF-7 cells", "value": 15, "unit": "nM"}, {"measurement": "EC50", "setting": "[2]", "value": 1.2, "unit": "nM"}]}
{"smiles": "C[C@]12CCC3c4ccc5[nH]ccc5c4CCC3C1CCC2=O", "note": "(stereo partly shown) [Compound 4]", "values": [{"measurement": "IC50", "setting": "[1]", "value": 1400, "unit": "nM"}, {"measurement": "EC50", "setting": "MCF-7 cells", "value": 280, "unit": "nM"}, {"measurement": "EC50", "setting": "[2]", "value": 1.8, "unit": "nM"}]}
{"smiles": "C[C@]12CCC3c4cc5ccn(S(C)(=O)=O)c5cc4CCC3C1CC[C@@H]2O", "note": "(stereo partly shown) [Compound 7]", "values": [{"measurement": "inhibition at 1 µM", "setting": "[1]", "value": 19, "unit": "%"}, {"measurement": "inhibition at 1 µM", "setting": "[3]", "value": 14, "unit": "%"}]}
{"smiles": "C[C@]12CCC3c4cc5ccn(S(C)(=O)=O)c5cc4CCC3C1CCC2=O", "note": "(stereo partly shown) [Compound 1]", "values": [{"measurement": "inhibition at 1 µM", "setting": "[1]", "value": 11, "unit": "%"}, {"measurement": "inhibition at 1 µM", "setting": "[3]", "value": 6.2, "unit": "%"}]}
{"smiles": "CSc1c[nH]c2ccc3c(c12)CCC1C3CC[C@]2(C)C(=O)CCC12", "note": "(stereo partly shown) [Compound 15]", "values": [{"measurement": "inhibition at 1 µM", "setting": "[1]", "value": 81, "unit": "%"}, {"measurement": "inhibition at 1 µM", "setting": "[3]", "value": 66, "unit": "%"}]}
{"smiles": "C[C@]12CCC3c4ccc5[nH]ccc5c4CCC3C1CC[C@@H]2O", "note": "(stereo partly shown) [Compound 6]", "values": [{"measurement": "IC50", "setting": "[1]", "value": 42, "unit": "nM"}, {"measurement": "EC50", "setting": "MCF-7 cells", "value": 2.9, "unit": "nM"}, {"measurement": "EC50", "setting": "[2]", "value": 0.21, "unit": "nM"}]}
{"smiles": "CCCCC(=O)O[C@H]1CCC2C3CCc4cc5[nH]ccc5cc4C3CC[C@@]21C", "note": "(stereo partly shown) [Compound 12]", "values": [{"measurement": "inhibition at 1 µM", "setting": "[1]", "value": 95, "unit": "%"}, {"measurement": "inhibition at 1 µM", "setting": "[3]", "value": 96, "unit": "%"}]}
